ChEMBL document CHEMBL4507319 (2021)

Tests used:
[1] = target: Casein kinase I isoform delta (Homo sapiens) (UniProt P48730); experiment: CK1delta(h) Eurofins kinase panel; details: Compound concentration 1.0 uM
[2] = target: T1, Serine/threonine-protein kinase haspin (Homo sapiens) (UniProt Q8TF76); experiment: Haspin(h) Eurofins kinase panel; details: Compound concentration 1.0 uM
T1 sequence (whole entry): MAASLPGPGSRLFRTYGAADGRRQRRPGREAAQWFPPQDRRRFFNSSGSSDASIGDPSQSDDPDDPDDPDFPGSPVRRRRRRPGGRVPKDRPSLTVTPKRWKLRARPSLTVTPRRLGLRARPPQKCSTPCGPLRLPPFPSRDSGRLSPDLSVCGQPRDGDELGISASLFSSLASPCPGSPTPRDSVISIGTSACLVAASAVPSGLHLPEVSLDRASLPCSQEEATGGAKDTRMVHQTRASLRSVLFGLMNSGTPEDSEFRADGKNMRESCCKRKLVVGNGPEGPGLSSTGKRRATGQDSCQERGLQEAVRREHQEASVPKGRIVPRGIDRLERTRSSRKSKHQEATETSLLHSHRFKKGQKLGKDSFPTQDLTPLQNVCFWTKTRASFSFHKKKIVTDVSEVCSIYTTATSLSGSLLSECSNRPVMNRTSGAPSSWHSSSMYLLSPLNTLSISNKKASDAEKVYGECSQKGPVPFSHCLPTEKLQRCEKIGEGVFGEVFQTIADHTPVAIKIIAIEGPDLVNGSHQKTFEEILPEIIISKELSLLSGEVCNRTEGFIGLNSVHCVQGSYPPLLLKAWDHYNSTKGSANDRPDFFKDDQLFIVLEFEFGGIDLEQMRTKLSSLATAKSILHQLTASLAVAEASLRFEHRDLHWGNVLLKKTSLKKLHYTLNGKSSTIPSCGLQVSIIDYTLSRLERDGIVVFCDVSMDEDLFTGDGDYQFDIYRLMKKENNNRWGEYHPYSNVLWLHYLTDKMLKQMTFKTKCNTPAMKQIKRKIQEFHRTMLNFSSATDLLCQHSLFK

[3] = target: Serine/threonine-protein kinase pim-3 (Homo sapiens) (UniProt Q86V86); experiment: Pim-3(h) Eurofins kinase panel; details: Compound concentration 1.0 uM
[4] = target: T2, Tyrosine-protein kinase TXK (Homo sapiens) (UniProt P42681); experiment: Txk(h) Eurofins kinase panel; details: Compound concentration 1.0 uM
T2 sequence (whole entry): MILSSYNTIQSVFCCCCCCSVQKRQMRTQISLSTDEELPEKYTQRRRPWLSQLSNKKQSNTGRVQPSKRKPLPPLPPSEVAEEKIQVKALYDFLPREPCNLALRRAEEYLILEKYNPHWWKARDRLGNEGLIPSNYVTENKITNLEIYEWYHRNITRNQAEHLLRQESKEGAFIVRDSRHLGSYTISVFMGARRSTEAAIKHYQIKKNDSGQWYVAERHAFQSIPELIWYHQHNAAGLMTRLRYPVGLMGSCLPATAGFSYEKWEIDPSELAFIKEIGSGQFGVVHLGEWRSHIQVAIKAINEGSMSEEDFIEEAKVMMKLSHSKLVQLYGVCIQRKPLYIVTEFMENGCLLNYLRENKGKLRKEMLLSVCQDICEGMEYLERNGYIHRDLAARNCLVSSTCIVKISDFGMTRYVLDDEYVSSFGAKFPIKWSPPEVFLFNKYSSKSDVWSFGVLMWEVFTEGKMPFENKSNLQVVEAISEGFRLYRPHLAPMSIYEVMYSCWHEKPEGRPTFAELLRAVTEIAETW

[5] = target: Serine/threonine-protein kinase PRP4 homolog (Homo sapiens) (UniProt Q13523); experiment: PRP4(h) Eurofins kinase panel; details: Compound concentration 1.0 uM
PC-3 = experiment: PC-3 cell line Proliferation assay; assay type: functional, Homo sapiens; details: time 6 day
[6] = target: Tyrosine-protein kinase Lck (Homo sapiens) (UniProt P06239); experiment: Lck(h) activated Eurofins kinase panel; details: Compound concentration 1.0 uM
[7] = target: Ephrin type-A receptor 7 (Homo sapiens) (UniProt Q15375); experiment: EphA7(h) Eurofins kinase panel; details: Compound concentration 1.0 uM
SU-DHL10 = experiment: SU-DHL-10 cell line Proliferation assay; assay type: functional, Homo sapiens; details: time 3 day
[8] = target: Calcium/calmodulin-dependent protein kinase type II subunit gamma (Homo sapiens) (UniProt Q13555); experiment: CaMKIIgamma(h) Eurofins kinase panel; details: Compound concentration 1.0 uM
Chain of Calcium/calmodulin-dependent protein kinase type II subunit gamma (Homo sapiens) (Q13555 whole entry): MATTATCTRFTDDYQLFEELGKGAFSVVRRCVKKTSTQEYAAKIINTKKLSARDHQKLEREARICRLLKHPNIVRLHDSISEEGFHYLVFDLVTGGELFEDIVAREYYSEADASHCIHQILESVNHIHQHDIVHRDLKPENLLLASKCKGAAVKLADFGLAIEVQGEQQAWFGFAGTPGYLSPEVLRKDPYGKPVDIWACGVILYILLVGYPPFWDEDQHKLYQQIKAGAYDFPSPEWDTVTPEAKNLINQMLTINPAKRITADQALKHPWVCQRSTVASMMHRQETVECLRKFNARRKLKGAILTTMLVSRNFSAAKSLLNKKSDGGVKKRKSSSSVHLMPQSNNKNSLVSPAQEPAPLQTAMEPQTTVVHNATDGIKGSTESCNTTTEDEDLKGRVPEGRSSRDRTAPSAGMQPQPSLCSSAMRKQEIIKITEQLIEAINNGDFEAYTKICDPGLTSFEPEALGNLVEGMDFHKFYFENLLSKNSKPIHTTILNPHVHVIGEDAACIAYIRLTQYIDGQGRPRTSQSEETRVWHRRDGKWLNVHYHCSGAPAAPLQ

[9] = target: Eukaryotic elongation factor 2 kinase (Homo sapiens) (UniProt O00418); experiment: eEF-2K(h) Eurofins kinase panel; details: Compound concentration 1.0 uM
Chain of Eukaryotic elongation factor 2 kinase (Homo sapiens) (O00418 whole entry): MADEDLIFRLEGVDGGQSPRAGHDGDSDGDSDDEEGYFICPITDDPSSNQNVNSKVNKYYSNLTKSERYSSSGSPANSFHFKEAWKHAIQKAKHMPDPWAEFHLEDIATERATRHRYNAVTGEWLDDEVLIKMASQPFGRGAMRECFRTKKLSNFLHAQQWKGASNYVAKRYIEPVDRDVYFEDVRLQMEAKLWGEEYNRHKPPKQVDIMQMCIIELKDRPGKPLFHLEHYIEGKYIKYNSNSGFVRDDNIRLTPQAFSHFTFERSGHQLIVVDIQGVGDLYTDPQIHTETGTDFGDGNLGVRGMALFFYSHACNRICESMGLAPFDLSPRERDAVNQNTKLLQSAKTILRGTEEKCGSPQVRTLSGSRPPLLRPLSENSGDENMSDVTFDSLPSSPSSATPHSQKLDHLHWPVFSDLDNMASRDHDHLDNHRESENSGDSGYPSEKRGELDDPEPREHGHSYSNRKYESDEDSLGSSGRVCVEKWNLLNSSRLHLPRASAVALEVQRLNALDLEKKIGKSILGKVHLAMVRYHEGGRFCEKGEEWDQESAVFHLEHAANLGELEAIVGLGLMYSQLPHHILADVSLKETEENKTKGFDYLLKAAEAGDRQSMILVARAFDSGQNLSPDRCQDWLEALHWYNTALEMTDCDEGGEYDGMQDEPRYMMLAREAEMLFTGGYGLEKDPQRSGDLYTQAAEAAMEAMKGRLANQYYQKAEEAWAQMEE

LS174T = experiment: LS-174T cell line Proliferation assay; assay type: functional, Homo sapiens; details: time 3 day
[10] = target: Macrophage-stimulating protein receptor (Homo sapiens) (UniProt Q04912); experiment: Ron(h) Eurofins kinase panel; details: Compound concentration 1.0 uM
Chain of Macrophage-stimulating protein receptor (Homo sapiens) (Q04912 25-304 limits assumed): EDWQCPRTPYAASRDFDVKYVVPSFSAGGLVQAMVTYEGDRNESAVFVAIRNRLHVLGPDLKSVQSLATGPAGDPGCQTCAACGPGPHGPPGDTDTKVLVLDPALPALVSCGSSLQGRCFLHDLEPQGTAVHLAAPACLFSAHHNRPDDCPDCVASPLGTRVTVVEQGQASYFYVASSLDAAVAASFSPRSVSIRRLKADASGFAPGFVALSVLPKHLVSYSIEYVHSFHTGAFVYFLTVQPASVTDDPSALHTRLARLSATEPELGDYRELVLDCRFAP
Chain of Macrophage-stimulating protein receptor (Homo sapiens) (Q04912 310-1400 limits assumed): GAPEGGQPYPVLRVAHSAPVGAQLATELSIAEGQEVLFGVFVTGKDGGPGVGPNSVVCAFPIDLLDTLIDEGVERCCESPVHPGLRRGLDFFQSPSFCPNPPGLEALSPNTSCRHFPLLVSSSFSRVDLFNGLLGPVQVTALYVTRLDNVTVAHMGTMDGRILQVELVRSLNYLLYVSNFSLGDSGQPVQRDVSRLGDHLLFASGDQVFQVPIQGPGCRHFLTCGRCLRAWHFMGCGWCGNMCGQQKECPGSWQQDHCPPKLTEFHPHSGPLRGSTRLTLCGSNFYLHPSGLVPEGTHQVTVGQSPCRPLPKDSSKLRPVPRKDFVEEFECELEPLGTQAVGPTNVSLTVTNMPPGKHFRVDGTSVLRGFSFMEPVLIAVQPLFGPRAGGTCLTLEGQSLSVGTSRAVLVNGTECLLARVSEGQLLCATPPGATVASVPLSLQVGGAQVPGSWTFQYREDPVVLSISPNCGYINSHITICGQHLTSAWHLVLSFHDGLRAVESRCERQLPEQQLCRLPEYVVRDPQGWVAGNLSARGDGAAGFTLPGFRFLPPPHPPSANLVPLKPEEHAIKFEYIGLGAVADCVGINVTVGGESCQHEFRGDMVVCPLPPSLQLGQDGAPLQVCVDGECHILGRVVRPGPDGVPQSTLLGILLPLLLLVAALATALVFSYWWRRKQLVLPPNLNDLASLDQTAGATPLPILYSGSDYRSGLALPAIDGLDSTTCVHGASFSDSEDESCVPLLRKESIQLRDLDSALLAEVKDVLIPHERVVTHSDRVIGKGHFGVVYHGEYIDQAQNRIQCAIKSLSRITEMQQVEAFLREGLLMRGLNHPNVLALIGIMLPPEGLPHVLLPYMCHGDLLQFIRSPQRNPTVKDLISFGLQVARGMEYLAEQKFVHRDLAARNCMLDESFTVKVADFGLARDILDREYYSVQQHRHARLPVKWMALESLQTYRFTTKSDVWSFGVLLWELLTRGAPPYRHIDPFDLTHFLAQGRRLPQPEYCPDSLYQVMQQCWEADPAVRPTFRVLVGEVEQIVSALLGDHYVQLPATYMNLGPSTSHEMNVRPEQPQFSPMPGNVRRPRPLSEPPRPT

[11] = target: Serine/threonine-protein kinase PLK3 (Homo sapiens) (UniProt Q9H4B4); experiment: Plk3(h) Eurofins kinase panel; details: Compound concentration 1.0 uM
Chain of Serine/threonine-protein kinase PLK3 (Homo sapiens) (Q9H4B4 whole entry, looked up): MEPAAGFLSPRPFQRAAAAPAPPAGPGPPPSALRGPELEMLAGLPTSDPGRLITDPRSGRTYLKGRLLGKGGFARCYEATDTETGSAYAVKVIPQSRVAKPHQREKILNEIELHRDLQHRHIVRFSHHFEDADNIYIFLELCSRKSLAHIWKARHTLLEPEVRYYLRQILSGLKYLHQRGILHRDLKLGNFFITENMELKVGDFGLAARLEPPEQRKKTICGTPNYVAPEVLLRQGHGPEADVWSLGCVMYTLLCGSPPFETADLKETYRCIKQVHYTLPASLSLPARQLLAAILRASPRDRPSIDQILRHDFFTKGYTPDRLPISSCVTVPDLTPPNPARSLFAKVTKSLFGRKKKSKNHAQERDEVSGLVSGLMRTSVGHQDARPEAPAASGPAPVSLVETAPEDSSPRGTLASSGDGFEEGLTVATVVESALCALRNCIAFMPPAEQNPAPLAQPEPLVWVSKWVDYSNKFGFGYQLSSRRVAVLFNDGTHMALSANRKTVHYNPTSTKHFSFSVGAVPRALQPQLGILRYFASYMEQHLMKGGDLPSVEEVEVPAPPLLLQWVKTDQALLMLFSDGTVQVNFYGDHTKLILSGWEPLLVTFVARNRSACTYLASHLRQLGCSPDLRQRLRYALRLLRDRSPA

[12] = target: Serine/threonine-protein kinase MARK1 (Homo sapiens) (UniProt Q9P0L2); experiment: MARK1(h) Eurofins kinase panel; details: Compound concentration 1.0 uM
[13] = target: T3, Inhibitor of nuclear factor kappa-B kinase subunit beta (Homo sapiens) (UniProt O14920); experiment: IKKbeta(h) Eurofins kinase panel; details: Compound concentration 1.0 uM
T3 sequence (whole entry): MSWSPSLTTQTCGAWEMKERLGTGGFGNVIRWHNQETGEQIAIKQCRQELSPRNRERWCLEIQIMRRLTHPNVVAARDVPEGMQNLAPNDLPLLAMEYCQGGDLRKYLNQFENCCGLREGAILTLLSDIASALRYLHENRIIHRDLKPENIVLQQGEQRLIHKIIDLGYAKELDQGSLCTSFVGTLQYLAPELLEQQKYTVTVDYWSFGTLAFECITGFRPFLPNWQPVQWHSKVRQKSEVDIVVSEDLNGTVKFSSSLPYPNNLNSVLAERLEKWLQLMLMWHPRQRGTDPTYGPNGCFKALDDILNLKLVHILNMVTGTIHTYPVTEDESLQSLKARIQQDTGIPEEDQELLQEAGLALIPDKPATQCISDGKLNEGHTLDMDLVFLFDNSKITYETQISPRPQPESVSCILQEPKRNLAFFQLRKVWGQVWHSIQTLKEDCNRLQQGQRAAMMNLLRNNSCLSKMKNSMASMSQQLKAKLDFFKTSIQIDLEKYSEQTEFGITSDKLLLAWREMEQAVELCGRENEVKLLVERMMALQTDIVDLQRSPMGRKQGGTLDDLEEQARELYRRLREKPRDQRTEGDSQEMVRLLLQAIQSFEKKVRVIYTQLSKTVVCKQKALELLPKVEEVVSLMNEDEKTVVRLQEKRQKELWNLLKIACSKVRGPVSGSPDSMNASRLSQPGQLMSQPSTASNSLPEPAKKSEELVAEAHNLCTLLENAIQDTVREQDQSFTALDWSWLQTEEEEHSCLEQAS

[14] = target: Cyclin-dependent kinase 5/CDK5 activator 1 (Homo sapiens) (UniProt Q00535+Q15078); experiment: CDK5/p25(h) Eurofins kinase panel; assay type: protein-complex assay; details: Compound concentration 1.0 uM
Chain of Cyclin-dependent kinase 5/CDK5 activator 1 (Homo sapiens) (Q00535 whole entry): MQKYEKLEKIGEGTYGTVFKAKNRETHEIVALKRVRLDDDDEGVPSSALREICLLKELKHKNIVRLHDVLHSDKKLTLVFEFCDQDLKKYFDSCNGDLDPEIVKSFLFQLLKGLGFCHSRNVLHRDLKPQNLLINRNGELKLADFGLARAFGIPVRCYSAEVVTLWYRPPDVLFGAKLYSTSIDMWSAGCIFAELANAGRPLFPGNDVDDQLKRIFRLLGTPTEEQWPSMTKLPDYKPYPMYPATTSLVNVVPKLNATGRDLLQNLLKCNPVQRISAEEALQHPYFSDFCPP
Chain of Cyclin-dependent kinase 5/CDK5 activator 1 (Homo sapiens) (Q15078 99-307 partner limits assumed): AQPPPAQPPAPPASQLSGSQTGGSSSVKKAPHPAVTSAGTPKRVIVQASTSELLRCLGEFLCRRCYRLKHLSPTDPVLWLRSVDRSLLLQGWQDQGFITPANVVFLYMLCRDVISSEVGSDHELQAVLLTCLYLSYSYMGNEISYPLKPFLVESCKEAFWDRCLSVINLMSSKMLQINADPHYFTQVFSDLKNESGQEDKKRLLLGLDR

[15] = target: Fibroblast growth factor receptor 1 (Homo sapiens) (UniProt P11362); experiment: FGFR1(h) Eurofins kinase panel; details: Compound concentration 1.0 uM
Chain of Fibroblast growth factor receptor 1 (Homo sapiens) (P11362 22-822 limits assumed): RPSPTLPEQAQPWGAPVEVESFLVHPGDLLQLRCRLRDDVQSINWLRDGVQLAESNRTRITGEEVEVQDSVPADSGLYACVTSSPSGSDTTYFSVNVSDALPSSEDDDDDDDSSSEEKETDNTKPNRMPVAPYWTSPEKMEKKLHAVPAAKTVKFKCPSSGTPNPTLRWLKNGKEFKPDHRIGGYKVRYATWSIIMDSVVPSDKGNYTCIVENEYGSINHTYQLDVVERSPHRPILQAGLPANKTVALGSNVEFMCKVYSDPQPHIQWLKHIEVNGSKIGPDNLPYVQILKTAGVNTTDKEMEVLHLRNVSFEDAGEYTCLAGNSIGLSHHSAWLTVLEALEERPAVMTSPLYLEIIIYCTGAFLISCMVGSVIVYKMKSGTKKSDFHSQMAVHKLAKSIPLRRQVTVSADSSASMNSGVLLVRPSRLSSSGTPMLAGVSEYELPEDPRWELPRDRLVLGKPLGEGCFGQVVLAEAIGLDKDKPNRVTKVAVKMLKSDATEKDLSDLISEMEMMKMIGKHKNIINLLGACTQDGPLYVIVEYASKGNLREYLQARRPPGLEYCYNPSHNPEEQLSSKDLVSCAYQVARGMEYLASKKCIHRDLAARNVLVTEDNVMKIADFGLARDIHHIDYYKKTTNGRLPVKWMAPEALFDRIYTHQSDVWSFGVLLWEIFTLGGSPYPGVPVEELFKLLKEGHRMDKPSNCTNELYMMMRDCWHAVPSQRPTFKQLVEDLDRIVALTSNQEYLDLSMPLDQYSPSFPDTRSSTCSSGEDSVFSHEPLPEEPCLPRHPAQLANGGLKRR

IMR-32 = experiment: IMR-32 cell line Proliferation assay; assay type: functional, Homo sapiens; details: time 6 day
[16] = target: Serine/threonine-protein kinase 35 (Homo sapiens) (UniProt Q8TDR2); experiment: CLIK1(h) Eurofins kinase panel; details: Compound concentration 1.0 uM

Compound: CCc1ccccc1C(=O)Nc1n[nH]c2c(C)c(F)c(C3C(C#N)=C(C)N(C)C(C)=C3C#N)cc12 [BAY-3827]
- % residual kinase activity [1]: 94%
- % residual kinase activity [2]: 107%
- % residual kinase activity [3]: 108%
- % residual kinase activity [4]: 111%
- % residual kinase activity [5]: 96%
- Cell Proliferation IC50 (PC-3): >10 µM
- % residual kinase activity [6]: 108%
- % residual kinase activity [7]: 91%
- Cell Proliferation IC50 (SU-DHL10): 12.5 µM
- % residual kinase activity [8]: 79%
- % residual kinase activity [9]: 141%
- Cell Proliferation IC50 (LS174T): >30 µM
- % residual kinase activity [10]: 102%
- % residual kinase activity [11]: 127%
- % residual kinase activity [12]: 66%
- % residual kinase activity [13]: 106%
- % residual kinase activity [14]: 98%
- % residual kinase activity [15]: 61%
- Cell Proliferation IC50 (IMR-32): >11.5 µM
- % residual kinase activity [16]: 80%
